The source of these data is patent publication US20250152553A1, “CARBAMOTHIOATE, AND CARBAMODITHIOATE DERIVATIVES OF MDMA, MDA OR ITS OPTICALLY ACTIVE (R)- OR (S)-MDMA AND MDA ISOMERS” (EmpathBio, Inc., priority 2023, published 2025).

The nature of data set [1]: Chemical stability in PBS pH 6.5. The class given is physicochemical. The conditions noted are these: for half-life: PBS pH 6.5; for Remaining Percentage (%) 0 min: PBS pH 6.5, 0 min; for Remaining Percentage (%) 30 min: PBS pH 6.5, 30 min; for Remaining Percentage (%) 60 min: PBS pH 6.5, 60 min; for Remaining Percentage (%) 120 min: PBS pH 6.5, 120 min; for Remaining Percentage (%) 240 min: PBS pH 6.5, 240 min.

A short description of data set [2]: Solubility in FaSSIF. The class given is physicochemical. Particulars: read-out: SOL (μM) FaSSIF.
Data set [3] is described as follows: Plasma stability in mouse plasma. Type of data set: in vitro ADME. The conditions noted are these: for half-life at 1 μM: test concentration 1 μM.

In brackets after ≈: the same amount, converted by molar mass. Bounds are passed on as bounds.

For orientation: half-life means the time needed for the level to fall by half in the phase considered. As to `CCSC(=S)N(C)C(C)Cc1ccc2c(c1)OCO2` (stereo not drawn) [Prodrug 11, ethyl (1-(benzo[d][1,3]dioxol-5-yl)propan-2-yl)(methyl)carbamodithioate], in data set [1], the half-life is more than 17.1 h, the “Remaining Percentage (%) 0 min” value turned out to be 100.00%, the “Remaining Percentage (%) 30 min” value is listed as 95.01% and the “Remaining Percentage (%) 60 min” value was determined as 93.41%. Further, in data set [1], the “Remaining Percentage (%) 120 min” value worked out at 96.45% and the “Remaining Percentage (%) 240 min” value worked out at 94.38%. The solubility in data set [2] was determined as 63.7 µM (≈ 19 µg/mL). Besides, in data set [3] (1 μM), the “Remaining Percentages (%) 0 min” value is recorded as 100%, the “Remaining Percentages (%) 15 min” value is given as 97.92%, the “Remaining Percentages (%) 30 min” value is reported as 101.25% and the “Remaining Percentages (%) 60 min” value is 94.58%. The “Remaining Percentages (%) 120 min” value in data set [3] (1 μM) is 94.17%. The half-life at 1 μM in data set [3] is more than 8.52 h.
For the compound `CCSC(=O)N(C)C(C)Cc1ccc2c(c1)OCO2` (stereo not drawn) [Prodrug 7, S-ethyl (1-(benzo[d][1,3]dioxol-5-yl)propan-2-yl)(methyl)carbamothioate], in data set [1], the half-life was more than 17.1 h, the “Remaining Percentage (%) 0 min” value is recorded as 100.00%, the “Remaining Percentage (%) 30 min” value came to 99.17% and the “Remaining Percentage (%) 60 min” value turned out to be 97.73%. Further, in data set [1], the “Remaining Percentage (%) 120 min” value is 95.86% and the “Remaining Percentage (%) 240 min” value amounted to 103.73%. Also, in data set [2], the solubility came out at 291 µM (≈ 82 µg/mL). In addition, in data set [3] (1 μM), the “Remaining Percentages (%) 0 min” value is listed as 100%, the “Remaining Percentages (%) 15 min” value worked out at 110.62%, the “Remaining Percentages (%) 30 min” value came out at 111.95% and the “Remaining Percentages (%) 60 min” value was determined as 113.27%. For the same compound, the “Remaining Percentages (%) 120 min” value in data set [3] (1 μM) was determined as 102.65%. The compound further showed a half-life at 1 μM in data set [3] of more than 8.52 h.
For the compound `CCOC(=S)NC(C)Cc1ccc2c(c1)OCO2` (stereo not drawn) [Prodrug 4, O-ethyl (1-(benzo[d][1,3]dioxol-5-yl)propan-2-yl)carbamothioate], in data set [1], the half-life is more than 17.1 h, the “Remaining Percentage (%) 0 min” value stood at 100.00%, the “Remaining Percentage (%) 30 min” value is listed as 103.44% and the “Remaining Percentage (%) 60 min” value came out at 100.85%. In data set [1], the “Remaining Percentage (%) 120 min” value was 94.76% and the “Remaining Percentage (%) 240 min” value is reported as 94.28%. The solubility in data set [2] came out at 60.3 µM (≈ 16.1 µg/mL). Besides, in data set [3] (1 μM), the “Remaining Percentages (%) 0 min” value is 100%, the “Remaining Percentages (%) 15 min” value was 100.00%, the “Remaining Percentages (%) 30 min” value was determined as 100.28% and the “Remaining Percentages (%) 60 min” value is listed as 97.80%. In addition, the “Remaining Percentages (%) 120 min” value in data set [3] (1 μM) is recorded as 95.32%. The same compound showed a half-life at 1 μM in data set [3] of more than 8.52 h.
Turning to `CSC(=O)N(C)C(C)Cc1ccc2c(c1)OCO2` (stereo not drawn) [Prodrug 5, S-methyl (1-(benzo[d][1,3]dioxol-5-yl)propan-2-yl)(methyl)carbamothioate], in data set [1], the half-life is more than 17.1 h, the “Remaining Percentage (%) 0 min” value is on record as 100.00%, the “Remaining Percentage (%) 30 min” value is reported as 91.67% and the “Remaining Percentage (%) 60 min” value is 104.03%. In data set [1], the “Remaining Percentage (%) 120 min” value is listed as 96.42% and the “Remaining Percentage (%) 240 min” value is 91.92%. Also, the solubility in data set [2] is 308 µM (≈ 82.3 µg/mL). Also, in data set [3] (1 μM), the “Remaining Percentages (%) 0 min” value is reported as 100%, the “Remaining Percentages (%) 15 min” value worked out at 100.78%, the “Remaining Percentages (%) 30 min” value worked out at 98.96% and the “Remaining Percentages (%) 60 min” value is 100.78%. Also, the “Remaining Percentages (%) 120 min” value in data set [3] (1 μM) is reported as 94.52%. In data set [3], this compound had a half-life at 1 μM of more than 8.52 h.
As for `CSC(=O)NC(C)Cc1ccc2c(c1)OCO2` (stereo not drawn) [Prodrug 6, S-methyl (1-(benzo[d][1,3]dioxol-5-yl)propan-2-yl)carbamothioate], in data set [1], the half-life is more than 17.1 h, the “Remaining Percentage (%) 0 min” value amounted to 100.00%, the “Remaining Percentage (%) 30 min” value is 93.08% and the “Remaining Percentage (%) 60 min” value is listed as 91.55%. In data set [1], the “Remaining Percentage (%) 120 min” value was determined as 88.38% and the “Remaining Percentage (%) 240 min” value turned out to be 88.38%. The solubility in data set [2] worked out at 293 µM (≈ 74.1 µg/mL). Moreover, in data set [3] (1 μM), the “Remaining Percentages (%) 0 min” value came to 100%, the “Remaining Percentages (%) 15 min” value was 99.73%, the “Remaining Percentages (%) 30 min” value turned out to be 103.77% and the “Remaining Percentages (%) 60 min” value amounted to 102.16%. Also, the “Remaining Percentages (%) 120 min” value in data set [3] (1 μM) came to 90.30%. For the same compound, the half-life at 1 μM in data set [3] was more than 8.52 h.
Take `CSC(=S)N(C)C(C)Cc1ccc2c(c1)OCO2` (stereo not drawn) [Prodrug 9, methyl (1-(benzo[d][1,3]dioxol-5-yl)propan-2-yl)(methyl)carbamodithioate]: in data set [1], the half-life was more than 17.1 h, the “Remaining Percentage (%) 0 min” value came out at 100.00%, the “Remaining Percentage (%) 30 min” value is listed as 97.22% and the “Remaining Percentage (%) 60 min” value worked out at 96.84%. Besides, in data set [1], the “Remaining Percentage (%) 120 min” value came out at 107.55% and the “Remaining Percentage (%) 240 min” value came to 89.55%. The solubility in data set [2] turned out to be 30.4 µM (≈ 8.63 µg/mL). In data set [3] (1 μM), the “Remaining Percentages (%) 0 min” value is 100%, the “Remaining Percentages (%) 15 min” value was 101.32%, the “Remaining Percentages (%) 30 min” value came out at 96.64% and the “Remaining Percentages (%) 60 min” value was found to be 98.79%. For the same compound, in data set [3] (1 μM), the “Remaining Percentages (%) 120 min” value worked out at 97.14%. The half-life at 1 μM in data set [3] is more than 8.52 h.
Regarding `CSC(=S)NC(C)Cc1ccc2c(c1)OCO2` (stereo not drawn) [Prodrug 10, methyl (1-(benzo[d][1,3]dioxol-5-yl)propan-2-yl)carbamodithioate], in data set [1], the half-life is more than 17.1 h, the “Remaining Percentage (%) 0 min” value amounted to 100.00%, the “Remaining Percentage (%) 30 min” value is reported as 96.55% and the “Remaining Percentage (%) 60 min” value was 105.17%. Moreover, in data set [1], the “Remaining Percentage (%) 120 min” value is on record as 109.86% and the “Remaining Percentage (%) 240 min” value stood at 113.62%. For the same compound, the solubility in data set [2] was found to be 306 µM (≈ 82.5 µg/mL). Moreover, in data set [3] (1 μM), the “Remaining Percentages (%) 0 min” value came out at 100%, the “Remaining Percentages (%) 15 min” value is listed as 100.89%, the “Remaining Percentages (%) 30 min” value was 98.00% and the “Remaining Percentages (%) 60 min” value turned out to be 100.22%. The “Remaining Percentages (%) 120 min” value in data set [3] (1 μM) turned out to be 89.09%. The same compound had a half-life at 1 μM in data set [3] of more than 8.52 h.
As for `CCSC(=O)NC(C)Cc1ccc2c(c1)OCO2` (stereo not drawn) [Prodrug 8, S-ethyl (1-(benzo[d][1,3]dioxol-5-yl)propan-2-yl)carbamothioate], in data set [1], the half-life is more than 17.1 h, the “Remaining Percentage (%) 0 min” value was 100.00%, the “Remaining Percentage (%) 30 min” value is given as 113.02% and the “Remaining Percentage (%) 60 min” value turned out to be 100.82%. In data set [1], the “Remaining Percentage (%) 120 min” value came out at 102.82% and the “Remaining Percentage (%) 240 min” value is recorded as 114.28%. In addition, in data set [2], the solubility is 288 µM (≈ 77.1 µg/mL). In data set [3] (1 μM), the “Remaining Percentages (%) 0 min” value stood at 100%, the “Remaining Percentages (%) 15 min” value stood at 110.30%, the “Remaining Percentages (%) 30 min” value came to 106.34% and the “Remaining Percentages (%) 60 min” value is recorded as 105.81%. In data set [3] (1 μM), the “Remaining Percentages (%) 120 min” value was found to be 101.19%. Besides, in data set [3], the half-life at 1 μM is more than 8.52 h.
Turning to `O=C(O)Cc1ccccc1Nc1c(Cl)cccc1Cl` [Diclofenac, reference compound], in data set [1], the half-life was determined as 0.695 h, the “Remaining Percentage (%) 0 min” value is recorded as 100.00%, the “Remaining Percentage (%) 30 min” value is reported as 60.68% and the “Remaining Percentage (%) 60 min” value turned out to be 35.44%. Also, in data set [1], the “Remaining Percentage (%) 120 min” value came to 13.15% and the “Remaining Percentage (%) 240 min” value was 1.85%. Further, in data set [3] (5 μM), the “Remaining Percentages (%) 0 min” value was 100%, the “Remaining Percentages (%) 30 min” value was found to be 58.97% and the “Remaining Percentages (%) 120 min” value worked out at 10.45%. Moreover, the half-life at 5 μM in data set [3] (test concentration 5 μM (control)) was determined as 0.594 h.
